Data from patent US12060347B2 (BRISTOL-MYERS SQUIBB COMPANY, priority 2016, dated 2024).

Molecular target: T1, human PAR4 (Homo sapiens, UniProt Q96RI0)
T1 construct: expressed in transfected cells; host or cells: HEK293 PAR4 Clone 1.2A (BMS Arctic ID 383940)
T1 sequence (Q96RI0 18-385): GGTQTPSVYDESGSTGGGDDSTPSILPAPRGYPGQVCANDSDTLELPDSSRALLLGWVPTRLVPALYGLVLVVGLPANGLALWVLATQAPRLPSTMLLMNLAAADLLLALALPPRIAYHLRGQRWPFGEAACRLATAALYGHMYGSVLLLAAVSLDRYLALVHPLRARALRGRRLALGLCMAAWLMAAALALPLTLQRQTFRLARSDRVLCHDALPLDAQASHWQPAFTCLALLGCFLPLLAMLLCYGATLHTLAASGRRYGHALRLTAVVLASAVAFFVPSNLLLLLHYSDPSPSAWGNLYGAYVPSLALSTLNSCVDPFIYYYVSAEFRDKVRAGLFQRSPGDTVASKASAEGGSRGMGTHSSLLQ
Assay: PAR4 FLIPR assay: antagonism of agonist-peptide-induced calcium mobilization in PAR4-expressing HEK293 cells
Format: cell-based
Settings: H-Ala-Phe(4-F)-[…]NH2-induced intracellular calcium mobilization, 11-point curves

IC50 [nM] | SMILES
3.2 | COC(=O)c1ncc(NC(=O)O[C@H](C)[C@H](C)Oc2nc3sc(-c4cc(C)cc5nc(OC)cnc45)nc3cc2F)cn1 [Example 712, methyl 5-(((((2R,3S)-3-((6-fluoro-2-(2-methoxy-7-methylquinoxalin-5-yl)thiazolo[5,4-b]pyridin-5-yl)oxy)butan-2-yl)oxy)carbonyl)amino)pyrimidine-2-carboxylate]
1.3 | COc1cnc2c(-c3nc4cc(F)c(OC[C@@H](C)OC(=O)Nc5cnc(C(C)(C)O)nc5)cc4s3)cc(C)cc2n1 [Example 497, (R)-1-((5-fluoro-2-(2-methoxy-7-methylquinoxalin-5-yl)benzo[d]thiazol-6-yl)oxy)propan-2-yl (2-(2-hydroxypropan-2-yl)pyrimidin-5-yl)carbamate]
2 | COc1cnc2c(-c3nc4cc(F)c(O[C@@H](C)[C@@H](C)OC(=O)Nc5cncnc5)nc4s3)cc(C)cc2n1 [Example 716, (2R,3S)-3-((6-fluoro-2-(2-methoxy-7-methylquinoxalin-5-yl)thiazolo[5,4-b]pyridin-5-yl)oxy)butan-2-yl pyrimidin-5-ylcarbamate]
0.8 | COc1cnc2c(-c3nc4cc(F)c(OC[C@@H](C)OC(=O)Nc5cccnc5)cc4s3)cc(C)cc2n1 [Example 347, (R)-1-((5-fluoro-2-(2-methoxy-7-methylquinoxalin-5-yl)benzo[d]thiazol-6-yl)oxy)propan-2-yl pyridin-3-ylcarbamate]
2 | CCOc1cnc2c(-c3nc4cc(F)c(O[C@@H](C)[C@@H](C)OC(=O)Nc5ccc(CCO)nc5)cc4s3)cc(C)cc2n1 [Example 526, (2R,3S)-3-((2-(2-ethoxy-7-methylquinoxalin-5-yl)-5-fluorobenzo[d]thiazol-6-yl)oxy)butan-2-yl (6-(2-hydroxyethyl)pyridin-3-yl)carbamate]
1.2 | COc1cnc2c(-c3nc4cc(F)c(O[C@@H](C)[C@@H](C)OC(=O)Nc5ccc(OCC(F)(F)CO)nc5)nc4s3)cc(C)cc2n1 [Example 726, (2R,3S)-3-((6-fluoro-2-(2-methoxy-7-methylquinoxalin-5-yl)thiazolo[5,4-b]pyridin-5-yl)oxy)butan-2-yl (6-(2,2-difluoro-3-hydroxypropoxy)pyridin-3-yl)carbamate]
1.7 | COc1cnc2c(-c3nc4cc(F)c(O[C@@H](C)[C@@H](C)OC(=O)Nc5cnc(OC)nc5)cc4s3)cc(Cl)cc2n1 [Example 820, (2R,3S)-3-((2-(7-chloro-2-methoxyquinoxalin-5-yl)-5-fluorobenzo[d]thiazol-6-yl)oxy)butan-2-yl (2-methoxypyrimidin-5-yl)carbamate]
0.2 | COc1cnc2c(-c3nc4cc(F)c(O[C@@H](C)[C@@H](C)OC(=O)Nc5cnc(N(C)S(C)(=O)=O)nc5)cc4s3)cc(C)cc2n1 [Example 607, (2R,3S)-3-((5-fluoro-2-(2-methoxy-7-methylquinoxalin-5-yl)benzo[d]thiazol-6-yl)oxy)butan-2-yl (2-(N-methylmethylsulfonamido)pyrimidin-5-yl)carbamate]
0.8 | COc1cnc2c(-c3nc4c(Cl)c(F)c(O[C@@H](C)[C@@H](C)OC(=O)Nc5cnc(OCCO)nc5)cc4s3)cc(Cl)cc2c1 [Example 795, (2R,3S)-3-((4-chloro-2-(6-chloro-3-methoxyquinolin-8-yl)-5-fluorobenzo[d]thiazol-6-yl)oxy)butan-2-yl (2-(2-hydroxyethoxy)pyrimidin-5-yl)carbamate]
0.5 | COc1cnc2c(-c3nc4cc(F)c(O[C@@H](C)[C@@H](C)OC(=O)Nc5cnc(C(=O)NCCC(C)(C)O)nc5)cc4s3)cc(C)cc2n1 [Example 458, (2R,3S)-3-((5-fluoro-2-(2-methoxy-7-methylquinoxalin-5-yl)benzo[d]thiazol-6-yl)oxy)butan-2-yl (2-((3-hydroxy-3-methylbutyl)carbamoyl)pyrimidin-5-yl)carbamate]

Second part, the compound before the results:

SMILES | IC50 [nM]
COC(=O)c1ccc(NC(=O)OCCOc2cc3sc(-c4cc(C)cc5nc(OC)cnc45)nc3c(Cl)c2F)cn1 [Example 361, methyl 5-(((2-((4-chloro-5-fluoro-2-(2-methoxy-7-methylquinoxalin-5-yl)benzo[d]thiazol-6-yl)oxy)ethoxy)carbonyl)amino)picolinate] | 5.5
COCc1cnc2c(-c3nc4c(C)c(C)c(OC)cc4s3)cc(C)cc2n1 [Example 284, 6-methoxy-2-(2-(methoxymethyl)-7-methylquinoxalin-5-yl)-4,5-dimethylbenzo[d]thiazole] | 5.9
CCOC(=O)C1(C(O)c2cc(OC)cc3sc(-c4cc(C)cc5nc(OC)cnc45)nc23)CCC1 (stereo not shown) [Example 644, Ethyl 1-(hydroxy(6-methoxy-2-(2-methoxy-7-methylquinoxalin-5-yl)benzo[d]thiazol-4-yl)methyl)cyclobutanecarboxylate] | 21
COc1cc(C(O)C2(C(F)(F)F)CCC2)c2nc(-c3cc(C)cc4nc(OC)cnc34)sc2c1 (stereo not shown) [Example 669] | 2.3
COc1cc(C(O)C(F)(F)F)c2nc(-c3cc(C)cc4nc(OC)cnc34)sc2c1 (single isomer, unassigned) [Example 633, 2,2,2-trifluoro-1-(6-methoxy-2-(2-methoxy-7-methylquinoxalin-5-yl)benzo[d]thiazol-4-yl)ethanol] | 2.6
COc1cnc2c(-c3nc4cc(F)c(O[C@@H](C)[C@@H](C)OC(=O)Nc5cnc(OCCC(C)(C)O)nc5)cc4s3)cc(C)cc2n1 [Example 570, (2R,3S)-3-((5-fluoro-2-(2-methoxy-7-methylquinoxalin-5-yl)benzo[d]thiazol-6-yl)oxy)butan-2-yl (2-(3-hydroxy-3-methylbutoxy)pyrimidin-5-yl)carbamate] | 6.6
Cc1cc(-c2nc3ccc(OCCNC(=O)OC4CCOCC4)cc3s2)c2ncc(OC(F)F)nc2c1 [Example 20, tetrahydro-2H-pyran-4-yl (2-((2-(2-(difluoromethoxy)-7-methylquinoxalin-5-yl)benzo[d]thiazol-6-yl)oxy)ethyl)carbamate] | 30
COCc1cnc2c(-c3nc4c(C(C)(C)O)cc(OC)cc4s3)cc(C)cc2n1 [Example 157, 2-(6-methoxy-2-(2-(methoxymethyl)-7-methylquinoxalin-5-yl)benzo[d]thiazol-4-yl) propan-2-ol] | 31
COCc1cnc2c(-c3nc4c(C)cc(OC(F)F)cc4s3)cc(C)cc2n1 [Example 263, 6-(difluoromethoxy)-2-(2-(methoxymethyl)-7-methylquinoxalin-5-yl)-4-methylbenzo[d]thiazole] | 0.8
Cc1cc(-c2nc3cccc(OCCO)c3s2)c2ncc(OC(F)F)nc2c1 [Example 74, 2-(2-(2-(difluoromethoxy)-7-methylquinoxalin-5-yl)benzo[d]thiazol-7-yloxy)ethanol] | 9.3
COc1cnc2c(-c3nc4c(C)cc(OCCNS(=O)(=O)c5ccc(F)cc5)cc4s3)cc(C(C)O)cc2n1 (stereo not shown) [Example 239, 4-fluoro-N-(2-((2-(7-(1-hydroxyethyl)-2-methoxyquinoxalin-5-yl)-4-methylbenzo[d]thiazol-6-yl)oxy)ethyl)benzenesulfonamide] | 7.9
COc1cnc2c(-c3nc4cnccc4s3)cc(C)cc2n1 [Example 809, 2-(2-methoxy-7-methylquinoxalin-5-yl)thiazolo[4,5-c]pyridine] | 54
COC(C)c1cnc2c(-c3cc4ccccc4o3)cc(C)cc2n1 (stereo not shown) [Example 184, 5-(benzofuran-2-yl)-2-(1-methoxyethyl)-7-methylquinoxaline] | 2300
COc1cnc2c(-c3nc4c(C)cc(OCc5cnc(-c6ccccc6)[nH]5)cc4s3)cc(C)cc2n1 [Example 35, 2-(2-methoxy-7-methylquinoxalin-5-yl)-4-methyl-6-((2-phenyl-1H-imidazol-5-yl)methoxy)benzo[d]thiazole] | 54
COCc1cnc2c(-c3nc4c(C)c(C)c(OC(C)C(C)O)cc4s3)cc(C)cc2n1 (mixture of isomers) [Example 323, 3-((2-(2-(methoxymethyl)-7-methylquinoxalin-5-yl)-4,5-dimethylbenzo[d]thiazol-6-yl)oxy)butan-2-ol] | 15
COc1cccc2cc(-c3cc(C)cc4nc(OC(F)F)cnc34)oc12 [Example 41, 2-(difluoromethoxy)-5-(7-methoxybenzofuran-2-yl)-7-methylquinoxaline] | 400
COc1ccc2oc(-c3cc(C)cc4nc(OC(F)F)cnc34)cc2c1 [Example 2, 2-(difluoromethoxy)-5-(5-methoxybenzofuran-2-yl)-7-methylquinoxaline] | 11
COc1cnc2c(-c3nc4c(Cl)c(F)c(O[C@@H](C)[C@@H](C)OC(=O)Nc5cnc(OC[C@@H](C)O)nc5)cc4s3)cc(Cl)cc2c1 [Example 796, (2R,3S)-3-((4-chloro-2-(6-chloro-3-methoxyquinolin-8-yl)-5-fluorobenzo[d]thiazol-6-yl)oxy)butan-2-yl (2-((R)-2-hydroxypropoxy)pyrimidin-5-yl)carbamate] | 1.3
COC(=O)c1cccc2nc(-c3cc(C)cc4nc(OC(F)F)cnc34)sc12 [Example 61, Methyl 2-(2-(difluoromethoxy)-7-methylquinoxalin-5-yl)benzo[d]thiazole-7-carboxylate] | 43
Cc1cc(-c2cn3ccccc3n2)c2ncc(OC(F)F)nc2c1 [Example 45, 2-(difluoromethoxy)-5-(imidazo[1,2-a]pyridin-2-yl)-7-methylquinoxaline] | 99
COc1cnc2c(-c3nc4c(Cl)c(F)c(OCCNS(=O)(=O)c5ccccc5)cc4s3)cc(C)cc2n1 [Example 330, N-(2-((4-chloro-5-fluoro-2-(2-methoxy-7-methylquinoxalin-5-yl)benzo[d]thiazol-6-yl)oxy)ethyl)benzenesulfonamide] | 57
